Data taken from patent publication US20250230435A1, “METHODS OF TREATMENT OF GNAQ AND GNA11 DRIVEN DISEASE” (THE FRANCIS CRICK INSTITUTE LIMITED, priority 2022, published 2025).
“Also recorded” adds a separate entry of the source.

What was measured:
Format in all cases: cell-based, human
TIME GNAQWT cells [1] = assay: Fluo-8 AM assay, thrombin-induced intracellular calcium, GNAQ WT cells; settings: 1 μM for 20 minutes, thrombin 1 U/ml
Experimental: (§1) FIG. 3—CRAC channel inhibition and variant-specific siRNAs rescue aberrant calcium signalling in variant cells. A-B. TIME-GNAQ^WT (A) or −GNAQ^R183Q (B) were loaded with intracellular calcium probe Fluo-8 and treated for 20 minutes with vehicle or 1 μM […]. Following treatment, cells were stimulated with thrombin 1 U/ml and fluorescence recorded for 300 seconds. The graphs represent an avarage of three independent experiments performed in technical quadruplicates. C. Means +/−SD deviation of areas under the curve calculated from three experiments summarised in […]. Statistical comparisons were performed by two-tailed paired t test (n.s=not statistically significant, * p=0.0284). […] IP1 concentration was measured 48 hours after transfection and shown as mean +/−SD of three independent experiments. […] TIME-GNAQ p.(R183Q); NFAT-Luc were transfected with non-target siRNA (siSCRA) or two siRNAs for specific silencing of the variant GNAQ allele (siGNAQmut 1 and 3) and luciferase reporter activity was measured 48 hours after transfection in complete medium or after four hours of starvation, shown as mean +/−SD of % change of cells transfected with mock in three independent experiments. […]

TIME GNAQR183Q cells [2] = assay: In vitro angiogenesis (endothelial tube formation) assay, GNAQ variant cells; settings: 1 μM, in presence of thrombin 0.3 U/ml, vs vehicle
Excerpt: (§2) FIG. 8—In vitro angiogenesis is disrupted by mutant GNAQ and rescued by CRAC channel inhibition. (A) Representative images captured with EVOS Floid Imaging System following Calcein AM staining during in vitro endothelial cell tube formation of TIME cells stably expressing either GNAQ WT or GNAQ R183Q. […] Statistical significance calculated using two-tailed unpaired t-test on three independent experiments (**** p<0.0001). […] Results shown as mean of a technical triplicate for each of 4 independent experiments. Statistical analysis performed by two-tailed paired t-test on four independent experiments (n.s=not statistically significant, * p=0.0125). […] Results shown as mean +/−SD of three independent experiments, and statistical analysis performed by two-tailed paired t-test (n.s=not statistically significant, * p=0.04).
(§3) TIME endothelial cell models were used to assess angiogenesis using a standard in vitro angiogenesis assay. […] Furthermore, thrombin GPCR activation disrupted angiogenesis in GNAQR183Q more than in GNAQWT (FIG. 8C).

TIME GNAQWT cells [3] = assay: In vitro angiogenesis (endothelial tube formation) assay, GNAQ WT cells; settings: 1 μM, in presence of thrombin 0.3 U/ml, vs vehicle
Excerpt: as §2, §3

TIME GNAQR183Q cells [4] = assay: Fluo-8 AM assay, thrombin-induced intracellular calcium, GNAQ variant cells; settings: 1 μM for 20 minutes, thrombin 1 U/ml
Experimental: as §1

UPMM1 UM cell line = assay: Fluo-8 assay, LTD4-induced intracellular calcium in UPMM1; settings: UPMM1, Fluo-8, 1, 3 or 10 μM, leukotriene D4 stimulation
Experimental: (§4) FIG. 10—GNAQ and CRAC inhibition in uveal melanoma cells. […] UPMM1 cells were non-transfected or transfected with non-target control siRNA (siSCRA) or with 2 distinct GNAQR183Q-mutant specific siRNAs (siGNAQmut3 and siGNAQmut6) and expression of the mutant allele was measured by using GNAQR183Q-mutant specific primers previously validated (forward primer: […] (SEQ ID NO:25); reverse primer: […] (SEQ ID NO:26). B. Transfection with siRNAs silencing GNAQ mutant allele reduced GPCR ligand-induced calcium intra-cellular accumulation. Cells loaded with Fluo-8 calcium marker were stimulated by the GPCR ligand leukotriene D4 (LTD4) and fluorescence was recorded over the time. C. […] Cells loaded with Fluo-8 calcium probe were treated by CM4620 1, 3 or 10 μM, stimulated by the GPCR ligand leukotriene D4 (LTD4) and fluorescence was recorded over the time.

GNAQR183Q mutant allele = assay: Expression of GNAQR183Q mutant allele in UPMM1, mutant-specific primers; settings: UPMM1 cells
Experimental: as §4

[5] = system: GNA11 c.547C>T, p.(R183C) allele; assay: Western blot knock-down of HA-tagged Gα11 in TIME cells expressing wild-type or p.R183C; settings: 25 nM siRNA, 24 h after transfection, TIME cells stably expressing wild-type or p.R183C HA-tagged Gα11
Experimental: (§5) FIG. 5—Designing and testing siRNA specific for GNAQ c.548G>A, p.(R183Q) A. Schematic representation of the 6 siRNAs designed to target specifically GNAQ c.548G>A allele. B. TIME cells stably expressing either wild-type or p.R183Q HA-tagged Gαq were transfected by 50 nM siRNAs targeting GNAQ c.548G>A, p.(R183Q) allele and analysed by western-blot 24 h after transfection. […] C. (average of three experiments, * p<0.05). D. Schematic representation of the 6 siRNAs designed to target specifically GNA11 c.547C>T p.(R183C). E. TIME cells stably expressing either wild-type or p.R183C HA-tagged Gα11 were transfected by 25 nM siRNAs targeting GNA11 c.547C>T, p.(R183C) allele and analysed by western-blot 24 h after transfection. […] (average of three experiments, * p<0.05).
(§6) hTERT-immortalised microvascular endothelial cells (TIME-ATCC CRL-4025TM, “TIME” cells) and their transgenic derivatives were maintained in EBMTM-2 Endothelial Cell Growth Basal Medium-2 (Lonza CC-3156), supplemented with EGMTM-2 BulletKit (Lonza CC-3162) and 3% fetal bovine serum (Gibco).
(§7) TIME cells were transduced with lentiviral vectors to induce stable expression of HA-tagged forms of GNAQ WT, GNAQ p.(R183Q), GNA11 WT, GNA11 p.(R183C) cDNAs (FIG. 4), and we confirmed presence of the mutations in the genomic DNA by Sanger sequencing (FIG. 4B). […]

[6] = system: GNAQ c.548G>A, p.(R183Q) allele; assay: Western blot knock-down of HA-tagged Gαq in TIME cells expressing wild-type or p.R183Q; settings: 50 nM siRNA, 24 h after transfection, TIME cells stably expressing wild-type or p.R183Q HA-tagged Gαq
Experimental: as §5, §6, §7

Cc1cccc(F)c1C(=O)Nc1cnc(-c2cc3c(cc2Cl)OC(F)(F)O3)cn1 [CM4620]
thrombin-induced calcium signalling, GNAQ WT cells (TIME GNAQWT cells [1]): limited effects | tubule formation (total length of the network), GNAQR183Q (TIME GNAQR183Q cells [2]): improved tubule formation | tubule formation (total length of the network), GNAQWT (TIME GNAQWT cells [3]): no statistically significant difference; also recorded: not GNAQWT | thrombin-induced calcium signalling, GNAQ-variant cells (TIME GNAQR183Q cells [4]): inhibits the variant cell response; also recorded: markedly rescuing the prolonged calcium intracellular peak | GPCR ligand (LTD4)-induced accumulation of intracellular calcium (UPMM1 UM cell line): reduced the GPCR ligand-induced accumulation of intracellular calcium

AGAGUUCAAGUCCCCACCA[dT][dT] (antisense UGGUGGGGACUUGAACUCU; dTdT overhangs, chemistry not fully specified) [siGNAQmut #6, siRNA to GNAQ c.548G>A p.(R183Q)]
expression of the GNAQR183Q mutant allele (GNAQR183Q mutant allele): reduced expression of the mutant allele

CUGCGGGUCUGCGUGCCCA[dT][dT] (antisense UGGGCACGCAGACCCGCAG; dTdT overhangs, chemistry not fully specified) [siGNA11mut #4, siRNA to GNA11 c.547C>T p.(R183C)]
specific knock-down of variant Gα11 protein over wild-type (western blot) [5]: specific knock-down of variant protein over wild-type counterparts

CUUAGAGUUCAAGUCCCCA[dT][dT] (antisense GGGGACUUGAACUCUAAGC; dTdT overhangs, chemistry not fully specified) [siGNAQmut #3, siRNA to GNAQ c.548G>A p.(R183Q)]
specific knock-down of variant Gαq protein over wild-type (western blot) [6]: specific knock-down of variant protein over wild-type counterparts | expression of the GNAQR183Q mutant allele (GNAQR183Q mutant allele): reduced expression of the mutant allele

UGCUUAGAGUUCAAGUCCC[dT][dT] (antisense GGGACUUGAACUCUAAGCA; dTdT overhangs, chemistry not fully specified) [siGNAQmut #1, siRNA to GNAQ c.548G>A p.(R183Q)]
specific knock-down of variant Gαq protein over wild-type (western blot) [6]: specific knock-down of variant protein over wild-type counterparts
